From the OPERA property sets (Mansouri et al. 2018) come the findings set out here.

Peptide text beside a SMILES is read from it. * marks the point of attachment. NHtBu = CC(C)(C)N*

As usually defined, the logP is a log measure of how a compound divides between an organic and an aqueous phase. High values mean a more lipophilic compound, low ones a more hydrophilic compound. For `CC1(C)SC2C(NC(=O)C(C(=O)Oc3ccccc3)c3ccccc3)C(=O)N2C1C(=O)O` (stereo unspecified), the logP was 3.14. For the compound `O=C(O)Cc1ccccc1`, the logP came out at 1.41. In turn, `CN1C(=O)C(=O)c2ccccc21` came in with a logP of 0.58. Turning to `CCN(CC)CCOC(=O)C=Cc1ccc(OC)cc1`, the logP came out at 3.55.

For `CCCCC(=O)O[C@]1(C(=O)CO)CC[C@H]2[C@@H]3CCC4=CC(=O)CC[C@]4(C)[C@H]3[C@@H](O)C[C@@]21C`, the logP was determined as 3.79.

In the case of `CCC(=O)OC(Cc1ccccc1)(c1ccccc1)C(C)CN(C)C` (stereo unspecified), the logP is 4.18. Regarding `CN1CCN(CC(=O)N/N=C/c2ccc([N+](=O)[O-])o2)CC1`, the logP is -0.1. The value for `c1ccc2c(c1)sc1ccccc12` was 4.38; that for `CCCOC/C(=N\c1ccc(Cl)cc1C(F)(F)F)n1ccnc1` was 1.4. The value for `CON(C)C(=O)Nc1ccc(Br)c(Cl)c1` was 3.09. Regarding `C1=CCCCC1`, the logP worked out at 2.86. The value for `CC(C)NCC(O)c1ccc(Cl)c(Cl)c1` (stereo unspecified) was 3.32. `O=NN1CCOCC1` had a logP of -0.44. `CCCCN(N=O)C(N)=O` yielded a logP of 1.04.

Turning to `CCOC(=O)CCl`, the logP was found to be 0.94. `Clc1cccs1` returned a logP of 2.54. The value for `COc1cc(CCO)ccc1O` was 0.47; that for `Fc1ccc(CCl)cc1` was 2.73. Take `c1ccc2c(c1)CCCC2`: the logP was found to be 3.49. `N#CCc1ccc([N+](=O)[O-])cc1`: the logP was 1.37. As to `CCCCOCC`, the lipophilicity (logP) was found to be 2.03. For the compound `CCCCCC=O`, the logP is 1.78. The value for `CC(=O)NCc1cc(C(=O)NN)ccn1` was -1.58; that for `Cc1[nH]cnc1CSCCNc1nc(=O)cc[nH]1` was 0.02; that for `CN1CCOCC1` was -0.33. On to `S=C=Nc1ccc2ccccc2c1`, for which the logP turned out to be 4.34.

With `CCCCOC`, the logP was found to be 1.66. The value for `CCCNC(=O)NO` was -0.22; that for `OCCOc1ccccc1` was 1.16; that for `C=CCC(NC(C)=O)C(N)=O` (stereo unspecified) was -0.86. On to `O=[N+]([O-])c1cc(Cl)c(O)c(Cl)c1`, for which the log partition coefficient (logP) was determined as 2.94. As for `O=C(O)c1cccc([N+](=O)[O-])c1`, the logP was found to be 1.83.

The compound `O=C1NCCN1c1ncc([N+](=O)[O-])s1` registered a logP of 0.95.

`CCCCC1(CC)C(=O)NC(=O)NC1=O` had a logP of 1.73. Compound `S=C1CCCN1` yielded a logP of -0.05.

On to `NC(=O)CBr`, for which the logP was -0.52.

`O=c1[nH]cnc2n[nH]nc12` returned a logP of -1.97. The value for `CC(C)(C)NCCO` was 0.41; that for `CCC(C)[N+](=O)[O-]` (stereo unspecified) was 1.2; that for `CSc1ccc(O)cc1` was 1.78.

Take `CC(C)CC(=O)NC(N)=O`: the logP was 0.45. For the compound `O=NN(CCCl)C(=O)NCCCl`, the logP is 1.53. On to `CC(C)(C)NC[C@H](O)COc1nsnc1N1CCOCC1`, for which the logP came out at 1.83.

In the case of `CC(C)NC(=O)c1cccnc1`, the logP came to 0.59. As for `COc1ccnc2c([N+](=O)[O-])cccc12`, the figure is 1.92; as for `CNc1nc2c3cccnc3ccc2n1C`, 1.82; as for `Clc1cccc2nccnc12`, 1.75.

On to `c1ccc(-c2ccc3ccccc3n2)cc1`, for which the logP came to 3.9. As for `CCCC(=O)OC1(C(=O)CCl)C(C)CC2C3CCC4=CC(=O)C=CC4(C)C3(F)C(O)CC21C` (stereo unspecified), the figure is 3.63; as for `NCC(=O)NCC(=O)O`, -2.92. Turning to `C=C1C(C)C2C(Cc3ccccc3)NC(=O)C23OC(=O)C=CC(O)CCCC(C)CC=CC3C1O` (stereo unspecified), the logP came out at 3.37. Regarding `O=C(O)COc1cccc([N+](=O)[O-])c1`, the logP was determined as 1.37. `CC(C)(C)C(O)C(Oc1ccc(-c2ccccc2)cc1)n1cncn1` (stereo unspecified) came in with a logP of 4.16.

As to `C=C1C(=O)OC2CC(C)C3C=CC(=O)C3(C)C(OC(=O)CC(=O)OC3C4C(=C)C(=O)OC4CC(C)C4C=CC(=O)C43C)C12` (stereo unspecified), the logP turned out to be 1.33.

Turning to `O=C(O)CCl`, the logP worked out at 0.22. The value for `COC(=O)CCC(=O)OC` was 0.35. As for `C=CCOc1cc(N)ccc1C(=O)O`, the logP was 1.25.

Consider `NNC(=O)c1ccnc(Cc2ccccc2)c1`, for which the logP came out at 1.01. Take `CN(C1CCCCC1)C1CCCCC1`: the logP was found to be 3.71. For `O=C(O)c1ccccc1Cl`, the logP is 2.05.

`CC1CC2C3CC(F)C4=CC(=O)C(Cl)=CC4(C)C3(F)C(O)CC2(C)C1(O)C(=O)CO` (stereo unspecified) yielded a lipophilicity (logP) of 2.58. In the case of `CN(C)C(N(C)C)=S(I)c1cccc(I)c1` (stereo unspecified), the lipophilicity (logP) was 0.29. For `CC(=O)C(Cc1ccccc1)C(C)=O`, the logP turned out to be 1.89. In turn, `CCCCN(CCCC)N=O` came in with a logP of 2.63. The value for `Cc1ccc2ncccc2c1` was 2.57; that for `CC(=O)NC(C)C(=O)NC(Cc1ccccc1)C(=O)NC(C)C(=O)NC(C)(C)C` (stereo not drawn) (Ac-Ala-Phe-Ala-NHtBu; configuration not given here) was 1.01. The compound `O=[N+]([O-])c1cc(Cl)c(O)c(Cl)c1Cl` came in with a logP of 3.93. `Cc1ccc(NC=O)cc1` yielded a logP of 1.61.

`CCN(CC)CCNC(=O)c1ccc(N)cc1` gave a logP of 0.88. Take `Cc1cnc(NS(=O)(=O)c2ccc(N)cc2)c(Br)c1`: the log partition coefficient (logP) turned out to be 1.79. Regarding `CCCCC(=O)OCC(=O)C1(O)C(C)CC2C3CCC4=CC(=O)C=CC4(C)C3(F)C(O)CC21C` (stereo unspecified), the log partition coefficient (logP) is 3.87. `Cc1c(Cl)cccc1Nc1ccccc1CC(=O)O` showed a logP of 4.64.

`CCOc1cccc(NC(C)=O)c1` showed a logP of 1.82. On to `COc1cnc(NS(=O)(=O)c2ccc(N)cc2)nc1`, for which the logP came to 0.41.

Take `O=C(NP(=O)(N1CC1)N1CC1)c1ccc(I)cc1`: the logP was 2.25. With `c1ccc(-c2cc(-c3ccccc3)c(NCCN3CCOCC3)nn2)cc1`, the logP is 3.38. As for `CSc1ccc2c(c1)N(CCC1CCCCN1C)c1ccccc1S2` (stereo unspecified), the figure is 5.9; as for `COc1cc(CCN)cc(OC)c1OC(C)C`, 1.52.

The compound `COC(=O)CC(C)C` displayed a logP of 1.82.

Compound `S=C(N/N=C/c1cc[nH]c1)Nc1ccccc1` yielded a logP of 3.73.

For the compound `CC1(C)C(C(=O)OC(C#N)c2cccc(Oc3ccccc3)c2)C1(C)C` (stereo unspecified), the lipophilicity (logP) was 5.7. `Cc1ccccc1OCC(=O)NNC(C)C` came in with a logP of 1.83. Take `CC(C)(C)c1cccc(C(C)(C)C)n1`: the logP came to 4.14.

In turn, `c1cscn1` registered a logP of 0.44. In turn, `Oc1ccccc1Br` returned a log partition coefficient (logP) of 2.35.

For the compound `Clc1cccnc1Cl`, the logP amounted to 2.11. On to `Cc1ccc(-c2nc(N)nc(N)n2)cc1`, for which the logP amounted to 1.92. For `Nc1nc2c(ncn2[C@H]2C[C@H](O)[C@@H](CO)O2)c(=S)[nH]1`, the logP was -0.56. `CCS(=O)(=O)CCn1c([N+](=O)[O-])cnc1C` had a logP of -0.35. `CC(C)NCC(O)COc1ccccc1` (stereo unspecified) displayed a lipophilicity (logP) of 1.72. `COc1ccccc1NC(=O)Nc1ccccc1OC` gave a logP of 2.98.

The compound `O=C1NC(=O)C(c2ccccc2)(c2ccc(O)cc2)N1` (stereo unspecified) gave a log partition coefficient (logP) of 1.7.

`O=C1CCCCC1` showed a logP of 0.81. For `CN(C)C(=O)OCc1ccc(Cl)cc1`, the logP was 2.93. As for `CCSC`, the figure is 1.54; as for `Cc1cc(CC(=O)O)ccc1OCc1ccccc1`, 3.37. The value for `O=C(Cn1c(=O)sc2ccc(Cl)cc21)N1CCN(CCO)CC1` was 1.04; that for `CC(C)C(=O)Nc1ccccc1` was 1.95. `CCC(C)NC(=O)C=C(Cl)c1ccccc1` (stereo unspecified) had a logP of 3.52.

As to `COC(OC)(OC)c1ccccc1`, the logP was found to be 2.27. The value for `Oc1cc(O)c2ccccc2c1` was 1.97; that for `CCCCCOCc1cccc(NC(=O)OCCN2CCCCC2)c1` was 4.2; that for `Brc1cc(Br)c(Br)cc1Br` was 5.13. Compound `Cc1ccc(O)c([N+](=O)[O-])c1` had a logP of 2.37.

As for `CCCOc1cn[nH]c1`, the logP worked out at 1.42. `Clc1cc2ccccc2cc1Cl` gave a logP of 4.42. `CN1C(=O)CCC1=O` gave a lipophilicity (logP) of -0.95.

`CCC=O` yielded a logP of 0.59. The compound `CCCCOC(N)=O` had a logP of 0.85. In turn, `CCCC(=O)CC(=O)CCC` displayed a logP of 2.23. `FC(F)(F)c1cccc(C2CNCCO2)c1` (stereo unspecified) returned a logP of 2.18. The compound `N#Cc1c[nH]c2ccccc12` came in with a logP of 2.32. Consider `O=C(Oc1ccccc1)c1ccccc1`, for which the logP was determined as 3.59. For the compound `CNS(=O)(=O)c1ccccc1`, the logP came out at 0.92. The value for `N#CCC(=O)O` was -0.76; that for `Cc1ccccc1N(C)C` was 2.85; that for `OC1(c2ccc(Cl)cc2)CCN(CCCC2(c3ccc(F)cc3)OCCO2)CC1` was 3.84.

As to `CCCCCOC(=O)c1ccc(S(N)(=O)=O)cc1`, the logP is 2.71. Turning to `O=Cc1ccc2c(c1)OCO2`, the logP amounted to 1.05. Compound `CCC(CC)C(=O)NC(CO)C(O)c1ccc([N+](=O)[O-])cc1` (stereo unspecified) gave a logP of 1.71.

In turn, `C=O` showed a logP of 0.35.

The compound `Oc1cc(Cl)c(Cl)cc1Cl` yielded a logP of 3.72. On to `O=C(O)COc1ccc(C2CCCCC2)cc1`, for which the lipophilicity (logP) stood at 3.79. Take `CCCCn1cnc2c(NC(C)=O)ncnc21`: the lipophilicity (logP) was 0.55. Compound `Clc1ccc2ccccc2n1` returned a logP of 2.71. The compound `CC(=O)OC1(C(=O)CO)CCC2C3CCC4=CC(=O)C=CC4(C)C3C(=O)CC21C` (stereo unspecified) gave a log partition coefficient (logP) of 2.43. As for `CCCCCCc1ccc(O)cc1O`, the logP was 3.45.

Turning to `CCOC(=O)C(=Cc1ccc(Cl)cc1Cl)C(C)=O`, the log partition coefficient (logP) is 3.67.

`FC(F)(F)C(Cl)Br` (stereo unspecified) had a lipophilicity (logP) of 2.3. `CCOc1ccc2nccnc2c1` registered a logP of 2.22. Regarding `Nc1ccn([C@@H]2C=C(CO)[C@@H](O)[C@H]2O)c(=O)n1`, the log partition coefficient (logP) is -2.45. `CCOC(=O)C=Cc1ccc(O)c(O)c1` displayed a logP of 2.56. Compound `CC1(C)OC(=O)c2ccccc21` displayed a log partition coefficient (logP) of 1.73.

Compound `NCCc1ccc(O)c(O)c1` gave a logP of -0.98.

Compound `CC(C)c1ccc(O)c(=O)cc1` returned a logP of 1.89. With `O=C1CN=C(c2ccccc2)c2cc(Cl)ccc2N1CC1CC1`, the lipophilicity (logP) was determined as 3.73.
